Values of other authors as cited in patent US20050118256A1, “Extended release alpha-2 agonist pharmaceutical dosage forms” (priority 2003, published 2005).
Structures can show the parent of a compound that is named as a salt.

Test system: skeletal muscle fibers, neuromuscular junction, spinal reflexes
Conditions: animal models

In the case of `Clc1ccc2nsnc2c1NC1=NCCN1` [Tizanidine, 5-chloro-4-(2-imidazolin-2-ylamino)-2,1,3-benzothiodiazole hydrochloride], the “effect on monosynaptic spinal reflexes” value is listed as “no major effect” and the “effect on skeletal muscle fibers or the neuromuscular junction” value is listed as “no direct effect”.
